ChEMBL document CHEMBL1201862, “PubChem BioAssay data set” (2004)
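Results reflect a 48-hour exposure of cells in 96-well plates to compound at five concentrations. GI50 marks 50% less growth.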 Active and inactive are the calls of the source. No stated cut-off is given here; in the data, active = GI50 up to about 1.1 µM and inactive = higher.

Assays:
Assay in all cases: NCI anticancer screen, dose series, 48 h
SF-295 = tested on: SF-295
OVCAR-4 = tested on: OVCAR-4
NCI/ADR-RES = tested on: NCI/ADR-RES
MDA-N = tested on: MDA-N
Hs-578T = tested on: Hs-578T
IGROV-1 = tested on: IGROV-1
Malme-3M = tested on: Malme-3M
NCI-H226 = tested on: NCI-H226
COLO 205 = tested on: COLO 205
CAKI-1 = tested on: CAKI-1
MOLT-4 = tested on: MOLT-4
MCF7 = tested on: MCF7
UO-31 = tested on: UO-31
A498 = tested on: A498
HCT-116 = tested on: HCT-116
SK-MEL-28 = tested on: SK-MEL-28
786-0 = tested on: 786-0
SNB-19 = tested on: SNB-19
T47D = tested on: T47D
NCI-H23 = tested on: NCI-H23

Measured: GI50

Cc1cnccc1/N=N/c1ccc(N(C)C)cc1
inactive: SF-295 21.4 µM | OVCAR-4 16.9 µM | NCI/ADR-RES 13 µM | MDA-N 8.32 µM | Hs-578T 29.9 µM | IGROV-1 7.8 µM | Malme-3M 35.7 µM | NCI-H226 4.82 µM | COLO 205 11.9 µM | CAKI-1 25.9 µM | MOLT-4 31.3 µM | MCF7 14.4 µM | UO-31 18.1 µM | A498 28.3 µM | HCT-116 22.9 µM | SK-MEL-28 22.3 µM | 786-0 42.2 µM | SNB-19 40 µM | T47D 48.6 µM | NCI-H23 24.4 µM

C=C1C(=O)C([Si](C)(C)C)=C2C=C(C)C3(CC3)C12C (stereo not given)
inactive: SF-295 30.4 µM | OVCAR-4 25.6 µM | NCI/ADR-RES 13.7 µM | MDA-N 22.7 µM | Hs-578T 41.5 µM | IGROV-1 25.2 µM | Malme-3M 14.7 µM | NCI-H226 32 µM | COLO 205 14.2 µM | CAKI-1 35.6 µM | MOLT-4 1.12 µM | MCF7 18.6 µM | UO-31 43.8 µM | A498 31 µM | HCT-116 37.5 µM | SK-MEL-28 58.1 µM | 786-0 95.3 µM | SNB-19 > 100 µM | T47D > 100 µM | NCI-H23 46.6 µM

O=P1(N(CCCl)CCCl)NCCCO1 (stereo not given) [CYCLOPHOSPHAMIDE ANHYDROUS]
inactive: SF-295 169 µM | OVCAR-4 > 250 µM | NCI/ADR-RES > 250 µM | MDA-N > 250 µM | Hs-578T > 250 µM | IGROV-1 > 216 µM | Malme-3M > 250 µM | NCI-H226 249 µM | COLO 205 > 250 µM | CAKI-1 > 192 µM | MOLT-4 249 µM | MCF7 > 250 µM | UO-31 > 250 µM | A498 > 238 µM | HCT-116 > 250 µM | SK-MEL-28 > 250 µM | 786-0 > 250 µM | SNB-19 > 250 µM | T47D > 88.7 µM | NCI-H23 > 235 µM
